# Target: TrkA kinase (Homo sapiens, UniProt P04629)
# Assay: TrkA kinase assay (mobility shift assay)
# Type: biochemical
# Conditions: class symbols; read-out: Trk A Kinase IC50
# Method in brief: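 Ten-point compound series was preincubated 10 min at room temperature with TrkA, then FAM-peptide plus ATP added in HEPES pH 7.5/Brij-35 buffer and reacted at 28 °C before EDTA quench.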
# Chain of TrkA kinase (P04629 33-796): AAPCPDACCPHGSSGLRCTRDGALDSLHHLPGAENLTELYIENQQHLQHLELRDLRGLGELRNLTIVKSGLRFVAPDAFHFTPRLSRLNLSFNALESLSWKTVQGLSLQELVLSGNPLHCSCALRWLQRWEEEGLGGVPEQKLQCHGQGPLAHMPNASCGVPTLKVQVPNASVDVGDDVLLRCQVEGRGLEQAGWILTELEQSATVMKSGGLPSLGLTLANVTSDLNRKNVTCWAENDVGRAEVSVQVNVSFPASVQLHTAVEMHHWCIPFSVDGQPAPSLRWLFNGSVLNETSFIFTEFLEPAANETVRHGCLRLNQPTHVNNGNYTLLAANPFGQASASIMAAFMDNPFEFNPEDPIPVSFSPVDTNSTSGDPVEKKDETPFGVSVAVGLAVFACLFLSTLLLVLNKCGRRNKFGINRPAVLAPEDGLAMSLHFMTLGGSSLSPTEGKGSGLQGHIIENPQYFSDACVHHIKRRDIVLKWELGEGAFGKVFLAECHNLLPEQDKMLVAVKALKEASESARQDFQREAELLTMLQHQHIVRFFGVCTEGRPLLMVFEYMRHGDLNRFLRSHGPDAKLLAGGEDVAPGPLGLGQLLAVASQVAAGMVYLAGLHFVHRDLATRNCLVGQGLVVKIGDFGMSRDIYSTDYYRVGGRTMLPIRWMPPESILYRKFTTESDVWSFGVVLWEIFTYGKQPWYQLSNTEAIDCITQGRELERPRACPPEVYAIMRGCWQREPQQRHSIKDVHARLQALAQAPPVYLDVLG
row,IC50 [nM],SMILES
1,10 to 50,"COc1cc2nc(-c3cnn4ccc(N5CCC[C@@H]5c5cc(F)ccc5F)nc34)cn2cc1OC [Compound 199, (R)-5-(2-(2,5-difluorophenyl)pyrrolidin-1-yl)-3-(6,7-dimethoxyimidazo[1,2-a]pyridin-2-yl)pyrazolo[1,5-a]pyrimidine]"
2,10 to 50,"Fc1ccc(F)c([C@H]2CCCN2c2ccn3ncc(-c4nc5cc6c(cc5[nH]4)OCCOCCOCCO6)c3n2)c1 [Compound 82, (R)-2-(5-(2-(2,5-difluorophenyl)pyrrolidin-1-yl)pyrazolo[1,5-a]pyrimidin-3-yl)-6,7,9,10,12,13-hexahydro-1H-[1,4,7,10]tetraoxacyclododecino[2′,3′:4,5]benzo[1,2-d]imidazole]"
3,10 to 50,"COc1cnc(OC)n2nc(-c3cnn4ccc(N5CCC[C@@H]5c5cc(F)ccc5F)nc34)nc12 [Compound 181, (R)-2-(5-(2-(2,5-difluorophenyl)pyrrolidin-1-yl)pyrazolo[1,5-a]pyrimidin-3-yl)-5,8-dimethoxy-[1,2,4]triazolo[1,5-c]pyrimidine]"
4,≤ 10,"Fc1ccc(F)c([C@H]2CCCN2c2ccn3ncc(-c4nc5cc(OC(F)F)c(OC(F)F)cc5[nH]4)c3n2)c1 [Compound 109, (R)-3-(5,6-bis(difluoromethoxy)-1H-benzo[d]imidazol-2-yl)-5-(2-(2,5-difluorophenyl)pyrrolidin-1-yl)pyrazolo[1,5-a]pyrimidine]"
5,≤ 10,"N#Cc1cc2nc(-c3cnn4ccc(N5CCC[C@@H]5c5cc(F)ccc5F)nc34)[nH]c2cc1O [Compound 149, (R)-2-(5-(2-(2,5-difluorophenyl)pyrrolidin-1-yl)pyrazolo[1,5-a]pyrimidin-3-yl)-6-hydroxy-1H-benzo[d]imidazole-5-carbonitrile]"
6,≤ 10,"N#Cc1cc2nc(-c3cnn4ccc(N5CCC[C@@H]5c5cc(F)ccc5F)nc34)[nH]c2cc1OCCO [Compound 150, (R)-2-(5-(2-(2,5-difluorophenyl)pyrrolidin-1-yl)pyrazolo[1,5-a]pyrimidin-3-yl)-6-(2-hydroxyethoxy)-1H-benzo[d]imidazole-5-carbonitrile]"
7,≤ 10,"OC1CC[C@H](c2nnc(-c3cnn4ccc(N5CCC[C@@H]5c5cc(F)ccc5F)nc34)[nH]2)C1 (stereo partly drawn) [Compound 19, (3S)-3-(5-(5-((R)-2-(2,5-difluorophenyl)pyrrolidin-1-yl)pyrazolo[1,5-a]pyrimidin-3-yl)-4H-1,2,4-triazol-3-yl)cyclopentan-1-ol]"
8,≤ 10,"CN1CCN(c2cc3[nH]c(-c4cnn5ccc(N6CCC[C@@H]6c6cc(F)ccc6F)nc45)nc3cc2C#N)CC1 [Compound 163, (R)-2-(5-(2-(2,5-difluorophenyl)pyrrolidin-1-yl)pyrazolo[1,5-a]pyrimidin-3-yl)-6-(4-methylpiperazin-1-yl)-1H-benzo[d]imidazole-5-carbonitrile]"
9,≤ 10,"COC(=O)c1c(F)ccc2nc(-c3cnn4ccc(N5CCC[C@@H]5c5cc(F)ccc5F)nc34)[nH]c12 [Compound 158, methyl (R)-2-(5-(2-(2,5-difluorophenyl)pyrrolidin-1-yl)pyrazolo[1,5-a]pyrimidin-3-yl)-6-fluoro-1H-benzo[d]imidazole-7-carboxylate]"
10,≤ 10,"Fc1ccc(F)c([C@H]2CCCN2c2ccn3ncc(-c4nc5ncc(Br)nc5[nH]4)c3n2)c1 [Compound 129, (R)-6-bromo-2-(5-(2-(2,5-difluorophenyl)pyrrolidin-1-yl)pyrazolo[1,5-a]pyrimidin-3-yl)-1H-imidazo[4,5-b]pyrazine]"
11,> 50,"Cn1c(-c2ccnc(N3CCC(O)CC3)c2)nnc1-c1cnn2ccc(N3CCC[C@@H]3c3cc(F)ccc3F)nc12 [Compound 21, (R)-1-(4-(5-(5-(2-(2,5-difluorophenyl)pyrrolidin-1-yl)pyrazolo[1,5-a]pyrimidin-3-yl)-4-methyl-4H-1,2,4-triazol-3-yl)pyridin-2-yl)piperidin-4-ol]"
12,≤ 10,"N#Cc1cc2nc(-c3cnn4ccc(N5CCC[C@@H]5c5cc(F)ccc5F)nc34)[nH]c2cc1Br [Compound 151, (R)-6-bromo-2-(5-(2-(2,5-difluorophenyl)pyrrolidin-1-yl)pyrazolo[1,5-a]pyrimidin-3-yl)-1H-benzo[d]imidazole-5-carbonitrile]"
13,10 to 50,"COc1cc2nc(-c3cnn4ccc(N5CCC[C@@H]5c5cc(F)ccc5F)nc34)[nH]c2cc1C(=O)NO [Compound 89, (R)-2-(5-(2-(2,5-difluorophenyl)pyrrolidin-1-yl)pyrazolo[1,5-a]pyrimidin-3-yl)-N-hydroxy-5-methoxy-1H-benzo[d]imidazole-6-carboxamide]"
14,10 to 50,"Fc1ccc(F)c([C@H]2CCCN2c2ccn3ncc(-c4nnc(C5CCOCC5)[nH]4)c3n2)c1 [Compound 32, (R)-5-(2-(2,5-difluorophenyl)pyrrolidin-1-yl)-3-(5-(tetrahydro-2H-pyran-4-yl)-4H-1,2,4-triazol-3-yl)pyrazolo[1,5-a]pyrimidine]"
15,≤ 10,"Fc1ccc(F)c([C@H]2CCCN2c2ccn3ncc(-c4nc5ccc(F)nc5[nH]4)c3n2)c1 [Compound 108, (R)-2-(5-(2-(2,5-difluorophenyl)pyrrolidin-1-yl)pyrazolo[1,5-a]pyrimidin-3-yl)-5-fluoro-3H-imidazo[4,5-b]pyridine]"
16,≤ 10,"N#Cc1cc2nc(-c3cnn4ccc(N5CCC[C@@H]5c5cc(F)ccc5F)nc34)[nH]c2cc1C(=O)O [Compound 153, (R)-5-cyano-2-(5-(2-(2,5-difluorophenyl)pyrrolidin-1-yl)pyrazolo[1,5-a]pyrimidin-3-yl)-1H-benzo[d]imidazole-6-carboxylic acid]"
17,10 to 50,"Fc1ccc(F)c([C@H]2CCCN2c2ccn3ncc(-c4nc5c(s4)COCC5)c3n2)c1 [Compound 192, (R)-2-(5-(2-(2,5-difluorophenyl)pyrrolidin-1-yl)pyrazolo[1,5-a]pyrimidin-3-yl)-6,7-dihydro-4H-pyrano[4,3-d]thiazole]"
18,> 50,"COC(=O)Oc1cc2nc(-c3cnn4ccc(N5CCC[C@@H]5c5cc(F)ccc5F)nc34)[nH]c2cc1OC(=O)OC [Compound 115, (R)-2-(5-(2-(2,5-difluorophenyl)pyrrolidin-1-yl)pyrazolo[1,5-a]pyrimidin-3-yl)-1H-benzo[d]imidazole-5,6-diyl dimethyl bis(carbonate)]"
19,10 to 50,"Cc1ccnc2[nH]c(-c3cnn4ccc(N5CCC[C@@H]5c5cc(F)ccc5F)nc34)nc12 [Compound 122, (R)-2-(5-(2-(2,5-difluorophenyl)pyrrolidin-1-yl)pyrazolo[1,5-a]pyrimidin-3-yl)-7-methyl-3H-imidazo[4,5-b]pyridine]"

# Same assay, conditions: numeric values; read-out: Trk A Kinase IC50
row,IC50 [nM],SMILES
1,1.9,"Fc1ccc(F)c([C@H]2CCCN2c2ccn3ncc(-c4nc5ncc(C(F)(F)F)cc5[nH]4)c3n2)c1 [Compound 110, (R)-2-(5-(2-(2,5-difluorophenyl)pyrrolidin-1-yl)pyrazolo[1,5-a]pyrimidin-3-yl)-6-(trifluoromethyl)-1H-imidazo[4,5-b]pyridine]"
2,6.4,"Fc1ccc(F)c([C@H]2CCCN2c2ccn3ncc(-c4nnc(C5COCCN5)[nH]4)c3n2)c1 (stereo partly drawn) [Compound 49, 3-(5-(5-((R)-2-(2,5-difluorophenyl)pyrrolidin-1-yl)pyrazolo[1,5-a]pyrimidin-3-yl)-4H-1,2,4-triazol-3-yl)morpholine]"
3,1.8,"O[C@H]1CC[C@@H](c2nnc(-c3cnn4ccc(N5CCC[C@@H]5c5cc(F)ccc5F)nc34)[nH]2)CC1 [Compound 5, (1S,4s)-4-(5-(5-((R)-2-(2,5-difluorophenyl)pyrrolidin-1-yl)pyrazolo[1,5-a]pyrimidin-3-yl)-4H-1,2,4-triazol-3-yl)cyclohexan-1-ol]"
4,20.4,"Fc1ccc(F)c([C@H]2CCCN2c2ccn3ncc(-c4cc5ccc(F)cc5[nH]4)c3n2)c1 [Compound 183, (R)-5-(2-(2,5-difluorophenyl)pyrrolidin-1-yl)-3-(6-fluoro-1H-indol-2-yl)pyrazolo[1,5-a]pyrimidine]"
5,2.65,"COC(=O)c1cc2[nH]c(-c3cnn4ccc(N5CCC[C@@H]5c5cc(F)ccc5F)nc34)nc2c(F)c1F [Compound 137, methyl (R)-2-(5-(2-(2,5-difluorophenyl)pyrrolidin-1-yl)pyrazolo[1,5-a]pyrimidin-3-yl)-4,5-difluoro-1H-benzo[d]imidazole-6-carboxylate]"
6,0.5,"CC(O)c1cc2nc(-c3cnn4ccc(N5CCC[C@@H]5c5cc(F)ccc5F)nc34)[nH]c2cn1 (stereo partly drawn) [Compound 70, 1-(2-(5-((R)-2-(2,5-difluorophenyl)pyrrolidin-1-yl)pyrazolo[1,5-a]pyrimidin-3-yl)-3H-imidazo[4,5-c]pyridin-6-yl)ethan-1-ol]"
7,0.59,"Fc1ccc(F)c([C@H]2CCCN2c2ccn3ncc(-c4nc5cnccc5o4)c3n2)c1 [Compound 73, (R)-2-(5-(2-(2,5-difluorophenyl)pyrrolidin-1-yl)pyrazolo[1,5-a]pyrimidin-3-yl)oxazolo[4,5-c]pyridine]"
8,0.43,"OC1CCN(c2cc(-c3nnc(-c4cnn5ccc(N6CCC[C@@H]6c6cc(F)ccc6F)nc45)[nH]3)ccn2)CC1 [Compound 2, (R)-1-(4-(5-(5-(2-(2,5-difluorophenyl)pyrrolidin-1-yl)pyrazolo[1,5-a]pyrimidin-3-yl)-4H-1,2,4-triazol-3-yl)pyridin-2-yl)piperidin-4-ol]"
9,0.26,"COc1cc2nc(-c3cnn4ccc(N5CCC[C@@H]5c5cc(F)ccc5F)nc34)[nH]c2cc1C(N)=O [Compound 91, (R)-2-(5-(2-(2,5-difluorophenyl)pyrrolidin-1-yl)pyrazolo[1,5-a]pyrimidin-3-yl)-5-methoxy-1H-benzo[d]imidazole-6-carboxamide]"
10,0.6,"Fc1ccc(F)c([C@H]2CCCN2c2ccn3ncc(-c4nnc(-c5ccc6nc[nH]c6c5)[nH]4)c3n2)c1 [Compound 57, (R)-3-(5-(1H-benzo[d]imidazol-6-yl)-4H-1,2,4-triazol-3-yl)-5-(2-(2,5-difluorophenyl)pyrrolidin-1-yl)pyrazolo[1,5-a]pyrimidine]"
11,0.77,"Oc1ncnc2nc(-c3cnn4ccc(N5CCC[C@@H]5c5cc(F)ccc5F)nc34)[nH]c12 [Compound 88, (R)-8-(5-(2-(2,5-difluorophenyl)pyrrolidin-1-yl)pyrazolo[1,5-a]pyrimidin-3-yl)-7H-purin-6-ol]"
